Target: Mitogen-activated protein kinase kinase kinase kinase 1 (Homo sapiens, UniProt Q92918)
Experiment: HPK1 Kinase Assay
Method: HPK1 kinase activity was measured by Promega's ADP-Glo™ kinase assay. In this assay, 5 ng of recombinant human HPK1 (signalchem) is incubated with 5 μL of compounds (0.5% DMSO), 5 μL of MBP (0.5 μg/μl) and 5 μL of ATP (25 μM) in buffer (40 mM Tris, 7.5; 20 mM MgCl2; 0.1 mg/ml BSA; 50 μM DTT.). The assay was started by incubating the reaction mixture in a 96-well plate at 30° C. for 40 minutes. After the incubation, 25 μL ADP-Glo reagent was added and the reaction was incubated at room temperature for 40-min to stop the reaction and degrade residual ATP. The ADP product was then converted to ATP by adding 50 μL per well of detection reagent. Luminescence was detected after 30-min room temperature incubation with the Molecular device I3X plate reader. The IC50 values were calculated from a series of percent inhibition values determined at a range of inhibitor concentration using software routines as implemented in the GraphPad Prism 7 software and SigmaPlot13.0.

Sequence of Mitogen-activated protein kinase kinase kinase kinase 1 (Q92918 whole entry): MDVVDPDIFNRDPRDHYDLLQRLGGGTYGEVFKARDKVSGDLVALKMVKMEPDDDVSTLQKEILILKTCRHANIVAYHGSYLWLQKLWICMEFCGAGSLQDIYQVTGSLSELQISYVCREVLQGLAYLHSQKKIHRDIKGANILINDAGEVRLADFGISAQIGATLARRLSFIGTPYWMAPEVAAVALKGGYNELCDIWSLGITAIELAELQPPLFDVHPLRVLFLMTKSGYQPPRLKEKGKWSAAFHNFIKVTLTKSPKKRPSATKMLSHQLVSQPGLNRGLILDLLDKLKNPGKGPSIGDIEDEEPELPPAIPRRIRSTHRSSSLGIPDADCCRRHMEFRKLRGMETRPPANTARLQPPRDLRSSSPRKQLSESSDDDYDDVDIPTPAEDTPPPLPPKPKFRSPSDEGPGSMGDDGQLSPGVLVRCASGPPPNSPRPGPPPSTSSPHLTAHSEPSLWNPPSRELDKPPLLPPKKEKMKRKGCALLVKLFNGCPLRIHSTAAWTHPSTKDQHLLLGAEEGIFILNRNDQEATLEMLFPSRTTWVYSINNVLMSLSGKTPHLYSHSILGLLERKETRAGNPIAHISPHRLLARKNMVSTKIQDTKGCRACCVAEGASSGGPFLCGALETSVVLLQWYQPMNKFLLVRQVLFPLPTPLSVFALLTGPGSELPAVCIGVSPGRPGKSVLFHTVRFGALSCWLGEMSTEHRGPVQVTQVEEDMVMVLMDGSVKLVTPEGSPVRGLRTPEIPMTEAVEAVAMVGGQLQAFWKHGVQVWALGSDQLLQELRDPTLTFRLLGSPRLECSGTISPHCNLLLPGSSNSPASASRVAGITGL

Row | IC50 | SMILES
1 | < 100 nM | CC(=O)Nc1cn2cc(-c3c(Cl)c(F)c(NC(C)C)c4[nH]ncc34)ncc2n1 [US20250197406, Example 43]
2 | < 100 nM | CC(C)Nc1c(F)c(Cl)c(-c2cn3cc(NC(=O)C4(F)CC4)nc3cn2)c2cn[nH]c12 [US20250197406, Example 52]

Source: BindingDB's records for patent US20250197406 (1ST Biotherapeutics, 2025)
